According to patent publication US8026359B2, “Fungicidal heterocyclic amines” (E.I. du Pont de Nemours and Company, priority 2007, dated 2011):
Marks after values point to notes of the source that are not given here.

Key:
Type in all cases: in vivo
[1] = test system: Colletotrichum orbiculare; assay: Test I: cucumber Colletotrichum anthracnose, preventive spray on cucumber seedlings; conditions: 100 = 100% disease control, 0 = no control relative to controls; for Test I disease control rating: 200 ppm; for pest or weed control at 200 ppm: Colletotrichum orbiculare, 144 h, read-out: Test I disease control rating
Outline: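 Preventive foliar spray to run-off on cucumber seedlings, at 200 ppm (stated as equal to 500 g/ha) or 40 ppm. Test suspensions were made in acetone/water 50/50 containing 250 ppm Trem 014, after first dissolving compound in acetone at 3% of final volume.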

[2] = test system: Venturia inaequalis; assay: Test O: apple scab, preventive spray on apple seedlings; conditions: 100 ppm (100 g/ha, 1000 L/ha), inoculated the following day, 100 = 100% disease control, 0 = no control relative to controls
Text: (§1) General protocol for preparing test suspensions for Tests A-R: The test compounds were first dissolved in acetone in an amount equal to 3% of the final volume and then suspended at the desired concentration (in ppm) in acetone and purified water (50/50 mix) containing 250 ppm of the surfactant Trem® 014 (polyhydric alcohol esters). The resulting test suspensions were then used in tests A-R. In Tests A-M, compounds were sprayed as a 200 ppm test suspension (equivalent to a rate of 500 g/ha) or as a 40 ppm test suspension to the point of runoff on the test plants. In Tests N-R, compounds were sprayed as a 100 g/ha test suspension (equivalent to a rate of 100 ppm) on the test plants at an application volume of 1000 L/ha. The test suspension was sprayed on apple seedlings.

[3] = test system: Erysiphe graminis f. sp. tritici; assay: Test A: wheat powdery mildew, preventive spray on wheat seedlings
Outline: (§2)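 Two spray concentrations are used, 40 ppm and 200 ppm, the latter matching a rate of 500 g/ha, applied until run-off. The carrier is half acetone, half purified water with 250 ppm surfactant, and acetone for initial dissolution makes up 3% of the volume.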

[4] = test system: Uncinula necator; assay: Test N: grape powdery mildew, preventive spray on grape seedlings; conditions: 100 ppm (100 g/ha, 1000 L/ha), inoculated the following day, 100 = 100% disease control, 0 = no control relative to controls
Text: as §1, with “grape” for “apple”

[5] = test system: Botrytis cinerea; assay: Test F: tomato Botrytis, preventive spray on tomato seedlings
Outline: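 Preventive run-off spray onto tomato seedlings at 200 ppm (equivalent to 500 g/ha) or 40 ppm. Suspensions: compound predissolved in acetone at 3% of final volume, then taken up in acetone/purified water 50/50 containing 250 ppm Trem® 014 surfactant.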

[6] = test system: Septoria nodorum; assay: Test C: wheat glume blotch, preventive spray on wheat seedlings; conditions: 200 ppm, 100 = 100% disease control, 0 = no control relative to controls; for pest or weed control at 200 ppm: Parastagonospora nodorum, 216 h, read-out: Test C disease control rating
Outline: as §2

[7] = test system: Alternaria solani; assay: Test H: tomato early blight, preventive spray on seedlings
Outline: as §2

[8] = test system: Septoria tritici; assay: Test D: wheat leaf blotch, preventive spray on wheat seedlings; conditions: 200 ppm, 100 = 100% disease control, 0 = no control relative to controls; for pest or weed control at 200 ppm: Zymoseptoria tritici, 504 h, read-out: Test D disease control rating
Outline: as §2

[9] = test system: Plasmopara viticola; assay: Test R: grape downy mildew, preventive spray on grape seedlings; conditions: 100 ppm (100 g/ha, 1000 L/ha), inoculated the following day, 100 = 100% disease control, 0 = no control relative to controls
Text: as §1, with “grape” for “apple”, “seedlings. The following day the seedlings were inoculated with a spore suspension of Plasmopara viticola (the causal agent of grape downy mildew) and incubated in a saturated atmosphere at 20° C. for 24 h, then moved to a growth chamber at 20° C. for 7 days, after which time the test units were placed back into a saturated atmosphere at 20° C. for 24 h. Upon removal, disease ratings were made.” for “seedlings.”

[10] = test system: Puccinia recondita f. sp. tritici; assay: Test B: wheat leaf rust, preventive spray on wheat seedlings; conditions: 200 ppm, 100 = 100% disease control, 0 = no control relative to controls; for pest or weed control at 200 ppm: Puccinia recondita, 192 h, read-out: Test B disease control rating
Outline: as §2

[11] = test system: Fusarium graminearum; assay: whole plant or invertebrate; conditions: for Test E disease control rating: 200 ppm, 100 = 100% disease control, 0 = no control relative to controls; for pest or weed control at 200 ppm: Fusarium graminearum, in Triticum aestivum, 192 h, read-out: Test E disease control rating
[12] = test system: Magnaporthe grisea; conditions: 100 ppm (100 g/ha, 1000 L/ha), rice seedlings, inoculated the following day; 100 = 100% disease control, 0 = no control relative to controls
[13] = test system: Rhizoctonia oryzae; assay: Test P: rice sheath blight, preventive spray on rice seedlings; conditions: 100 ppm (100 g/ha, 1000 L/ha), inoculated the following day, 100 = 100% disease control, 0 = no control relative to controls
Text: as §1, with “rice” for “apple”

[14] = 200 ppm, 100 = 100% disease control, 0 = no control relative to controls

Compound | Test I disease control rating [1] [%] | Test O disease control rating [2] [%] | Test N disease control rating [4] [%] | Test F disease control rating [5, 14] [%] | Test C disease control rating [6] [%] | Test D disease control rating [8] [%] | Test R disease control rating [9] [%] | Test B disease control rating [10] [%] | Test E disease control rating [11] [%] | Test Q disease control rating [12] [%] | Test P disease control rating [13] [%] | also measured
COC[C@H](C)Nc1nccc(-c2ncnc(Nc3ccc(F)c(Cl)c3)n2)n1 [Compound 23] | 99 | 99 | 61 | 90 | 100 | 13 | 30 | 98 | 98 | – | – | Test A disease control rating ([3]; 40 ppm (marked *)): 0* %; Test H disease control rating ([7]; 40 ppm (marked *)): 100* %
COC[C@H](C)Nc1nccc(-c2ncnc(Nc3cccc(Cl)c3)n2)n1 [Compound 16] | 97 | 76 | 99 | 96 | 99 | 71 | 40 | 99 | 99 | – | – | Test H disease control rating [7, 14]: 98%
COC[C@H](C)Nc1nccc(-c2ncnc(Nc3cccc(C)c3)n2)n1 [Compound 19] | 99 | 33 | 95 | 99 | 100 | 87 | 73 | 97 | 97 | – | – | Test H disease control rating [7, 14]: 93%
COC[C@H](C)Nc1nccc(-c2ccnc(Nc3cccc(F)c3)c2)n1 [Compound 56] | 90 | 75 | 64 | 99 | 99 | 82 | 97 | 99 | 90 | 98 | 100 | Test A disease control rating [3, 14]: 84%
COC[C@H](C)Nc1nccc(-c2ncnc(Nc3cccc(C#N)c3)n2)n1 [Compound 18] | 99 | 83 | 99 | 95 | 100 | 0 | 86 | 100 | 85 | 100 | 100 | Test H disease control rating ([7]; 40 ppm (marked *)): 89* %
COC[C@H](C)Nc1nccc(-c2ncnc(Nc3cc(F)cc(F)c3)n2)n1 [Compound 22, N-(3,5-difluorophenyl)-4-[2-[[(1S)-2-methoxy-1-methylethyl]amino]-4-pyrimidinyl]-1,3,5-triazin-2-amine] | – | 99 | 99 | – | – | – | 83 | – | – | 100 | 100 | pest or weed control at 200 ppm [1]: 100%; pest or weed control at 40 ppm ([3]; Blumeria graminis, 192 h, 40 ppm (marked *), read-out: Test A disease control rating): 69%; pest or weed control at 40 ppm ([5]; Botrytis cinerea, 120 h, 40 ppm (marked *), read-out: Test F disease control rating): 99%; pest or weed control at 200 ppm [6]: 100%; pest or weed control at 40 ppm ([7]; Alternaria solani, 168 h, 40 ppm (marked *), read-out: Test H disease control rating): 100%; pest or weed control at 200 ppm [8]: 36%; pest or weed control at 200 ppm [10]: 99%; pest or weed control at 200 ppm [11]: 99%
COCC(C)Nc1nccc(-c2ncnc(Nc3cccc(F)c3)n2)n1 (stereo not drawn) [Compound 2, N-(3-fluorophenyl)-4-[2-[(2-methoxy-1-methylethyl)amino]-4-pyrimidinyl]-1,3,5-triazin-2-amine] | – | 95 | 89 | – | – | – | 60 | – | – | 93 | 100 | pest or weed control at 200 ppm [1]: 99%; pest or weed control at 200 ppm ([3]; Blumeria graminis, 192 h, 200 ppm, 100 = 100% disease control, 0 = no control relative to controls, read-out: Test A disease control rating): 94%; pest or weed control at 200 ppm ([5]; Botrytis cinerea, 120 h, 200 ppm, 100 = 100% disease control, 0 = no control relative to controls, read-out: Test F disease control rating): 93%; pest or weed control at 200 ppm [6]: 99%; pest or weed control at 200 ppm ([7]; Alternaria solani, 168 h, 200 ppm, 100 = 100% disease control, 0 = no control relative to controls, read-out: Test H disease control rating): 97%; pest or weed control at 200 ppm [8]: 71%; pest or weed control at 200 ppm [10]: 99%; pest or weed control at 200 ppm [11]: 95%
